Measurements reported in US20070218460A1, “Method of Estimating Toxicity of Drug” (TAKEDA PHARMACEUTICAL COMPANY LIMITED, priority 2003, published 2007).
Where two headings read alike, the source gives them in different places.

How the values were obtained:
HepG2 cells [1] = test: Electron-microscopic examination of PLsis induction potential (myelin-like structure)
Source text: Using 30 kinds of the following commercially available drugs as test compounds, the level of PLsis induction potential was examined with the emergence of an intracellular myelin-like structure or a structure having a high electron density, which is an early image thereof, as an index by electronmicroscopic observation.
HepG2 cells (purchased from ATCC) were exposed to the test compound by a conventional method. HepG2 cells used were of the cell growth phase. The attached HepG2 cells were washed twice with. Dulbecco's phosphate buffered saline (calcium and magnesium salt free; PBS(−))(Dainippon Pharmaceutical Co., Ltd.) containing 0.05 w/v % EDTA, detached with a cell dissociation solution of 0.25 vol % trypsin-1 mmol/L EDTA (Gibco BRL) diluted 2-fold with PBS(−), centrifuged to remove the supernatant, and adjusted to a concentration of 2×10^5 cells/250 μL with a culture medium [Dulbecco's modified Eagle medium (DMEM)(Gibco BRL) supplemented with 50 U/mL penicillin (Gibco BRL)-[…] streptomycin (Gibco BRL) and 5 vol % FBS (Bio whittaker)]. DMSO alone or a culture medium containing the above-mentioned test compound in DMSO solution was dispensed to a well by 250 μL, the above-mentioned cell suspension (250 μL) was added, and cultured in a CO2 incubator (7100; Napco) under an atmosphere of 5% CO2—95% air at 37° C.
After culture for 72 hr, the culture medium was removed, and the cells were fixed with 1 w/v % glutaraldehyde solution. After fixing with 2 w/v % osmic acid for 2 hr by a conventional method and dehydrating with an alcohol series, the cells were embedded in a resin (Quetol 812). Ultrathin slices were prepared and, after electron staining, observed with an electron microscope (H-300; Hitachi) and photographed in 3 or more pictures per each sample (magnification ×5000). The processing after post-fixation was performed by Applied Medical Research.

HepG2 cells [2] = test: Highest concentration at which cells were viable after 72 hr exposure; format: cell-based, human
asah1 = test: Real-time quantitative PCR of PLsis marker gene expression; format: cell-based, human; conditions: HepG2 cells, 24 hr exposure, relative value, control group = 1.0, GAPDH internal standard, n=3
Procedure: (§1) Using RNeasy Mini Kit (QIAGEN), total RNA was purified from the cells, and cDNA was synthesized in a 100 μL system using TaqMan Reverse Transcription Reagents (PE Applied Biosystems).
(§2) As the primer for glyceraldehyde-3-phosphoric acid dehydrogenase (GAPDH) and VIC labeled probe, those attached to TaqMan GAPDH Control Reagents (PE Applied Biosystems) were used.
(§3) Using 100 μL of the reaction mixture containing 5 μL of cDNA (1×TaqMan Universal PCR Master Mix (PE Applied Biosystems), 200 nM forward primer, 200 nM reverse primer and 200 nM TaqMan probe), 40 cycles of (1 cycle=95° C., 15 sec; 60° C., 1 min) PCR were performed. PCR and fluorescence detection were performed using ABI PRISM Sequence Detector 7000 (PE Applied Biosystems). As the internal standard, GAPDH was used to amend the measurement values. For the determination of significant difference, t-test was used (n=3).
(§4) For each test compound, the expression variation rate of 12 genes each relative to the control group was determined.

depp = test: as above; format: cell-based, human; conditions: HepG2 cells, 24 hr exposure, relative value, control group = 1.0, GAPDH internal standard, n=3
Procedure: as §1, §2, §3, §4

fabp1 = test: as above; format: cell-based, human; conditions: HepG2 cells, 24 hr exposure, relative value, control group = 1.0, GAPDH internal standard, n=3
Procedure: as §1, §2, §3, §4

flj22362 = test: as above; format: cell-based, human; conditions: HepG2 cells, 24 hr exposure, relative value, control group = 1.0, GAPDH internal standard, n=3
Procedure: as §1, §2, §3, §4

hpn = test: as above; format: cell-based, human; conditions: HepG2 cells, 24 hr exposure, relative value, control group = 1.0, GAPDH internal standard, n=3
Procedure: as §1, §2, §3, §4

kiaa1001 = test: as above; format: cell-based, human; conditions: HepG2 cells, 24 hr exposure, relative value, control group = 1.0, GAPDH internal standard, n=3
Procedure: as §1, §2, §3, §4

lss = test: as above; format: cell-based, human; conditions: HepG2 cells, 24 hr exposure, relative value, control group = 1.0, GAPDH internal standard, n=3
Procedure: as §1, §2, §3, §4

mgc4171 = test: as above; format: cell-based, human; conditions: HepG2 cells, 24 hr exposure, relative value, control group = 1.0, GAPDH internal standard, n=3
Procedure: as §1, §2, §3, §4

nr0b2 = test: as above; format: cell-based, human; conditions: HepG2 cells, 24 hr exposure, relative value, control group = 1.0, GAPDH internal standard, n=3
Procedure: as §1, §2, §3, §4

serpina3 = test: as above; format: cell-based, human; conditions: HepG2 cells, 24 hr exposure, relative value, control group = 1.0, GAPDH internal standard, n=3
Procedure: as §1, §2, §3, §4

slc2a3 = test: as above; format: cell-based, human; conditions: HepG2 cells, 24 hr exposure, relative value, control group = 1.0, GAPDH internal standard, n=3
Procedure: as §1, §2, §3, §4

tagln = test: as above; format: cell-based, human; conditions: HepG2 cells, 24 hr exposure, relative value, control group = 1.0, GAPDH internal standard, n=3
Procedure: as §1, §2, §3, §4

SMILES | frequency of appearance of myelin-like structure (HepG2 cells [1]) | addition concentration (highest concentration at which cells survived after 72 hr of culture) (HepG2 cells [2]) | expression variation rate asah1 (asah1) | expression variation rate depp (depp) | expression variation rate fabp1 (fabp1) | expression variation rate flj22362 (flj22362) | expression variation rate hpn (hpn) | expression variation rate kiaa1001 (kiaa1001) | expression variation rate lss (lss) | expression variation rate mgc4171 (mgc4171) | expression variation rate nr0b2 (nr0b2) | expression variation rate serpina3 (serpina3) | expression variation rate slc2a3 (slc2a3) | expression variation rate tagln (tagln) | frequency of appearance of myelin-like structure (HepG2 cells [1]; HepG2 cells, 72 hr culture, electron microscopy, blind test n=4, addition concentration 8.3 or 25 μmol/L) | frequency of appearance of myelin-like structure (HepG2 cells [1]; HepG2 cells, 72 hr, electromicroscopic test, class symbols in head of Table 2)
Clc1ccccc1CNCC1CCC(CNCc2ccccc2Cl)CC1 (stereo not drawn) [AY-9944] | ++ | 8.3 µmol/L | 4.71 | 3.32 | 3.16 | 1.45 | 2.68 | 1.68 | 4.78 | 1.63 | 2.71 | 1.97 | 0.22 | 0.21 |  | 
CC(=O)Nc1ccc(O)cc1 [acetaminophen] |  | 25 µmol/L | 1.18 | 0.94 | 1.11 | 1.02 | 1.10 | 1.13 | 0.91 | 0.75 | 0.69 | 0.99 | 1.50 | 0.93 |  | 
CCCCc1oc2ccccc2c1C(=O)c1cc(I)c(OCCN(CC)CC)c(I)c1 [amiodarone] | ++ | 8.3 µmol/L | 1.69 | 1.12 | 2.01 | 1.07 | 2.15 | 1.56 | 1.82 | 1.32 | 1.35 | 1.17 | 0.35 | 0.56 |  | 
CN(C)CCC=C1c2ccccc2CCc2ccccc21 [amitriptyline] | +++ | 25 µmol/L | 3.10 | 5.08 | 2.39 | 1.80 | 2.20 | 2.11 | 1.79 | 2.22 | 1.64 | 3.01 | 0.22 | 0.23 |  | 
CN1CCN(C(c2ccccc2)c2ccc(Cl)cc2)CC1 (stereo not drawn) [chlorcyclizine] | +++ | 25 µmol/L | 3.23 | 3.24 | 2.62 | 2.96 | 2.97 | 2.47 | 2.98 | 2.43 | 2.46 | 2.23 | 0.20 | 0.30 |  | 
CN(C)CCCN1c2ccccc2Sc2ccc(Cl)cc21 [chlorpromazine] | ++ | 8.3 µmol/L | 1.29 | 2.95 | 2.56 | 1.70 | 1.70 | 1.90 | 1.99 | 1.74 | 1.20 | 1.94 | 0.43 | 0.65 |  | 
CC[C@H]1OC(=O)[C@H](C)[C@@H](O[C@H]2C[C@@](C)(OC)[C@@H](O)[C@H](C)O2)[C@H](C)[C@@H](O[C@@H]2O[C@H](C)C[C@H](N(C)C)[C@H]2O)[C@](C)(OC)C[C@@H](C)C(=O)[C@H](C)[C@@H](O)[C@]1(C)O [clarithromycin] | − | 25 µmol/L | 1.55 | 0.93 | 0.91 | 1.00 | 0.96 | 1.48 | 0.65 | 1.18 | 0.78 | 1.39 | 0.86 | 0.86 |  | 
CN1CCN(C2=Nc3cc(Cl)ccc3Nc3ccccc32)CC1 [clozapine] | ++ | 25 µmol/L |  | 5.15 | 3.89 | 1.92 | 2.35 | 3.34 |  | 1.88 | 1.97 | 1.96 | 0.24 | 0.24 |  | 
CN(C)CCCN1c2ccccc2CCc2ccccc21 [imipramine] |  | 25 µmol/L | 4.52 | 3.36 | 2.45 | 1.80 | 2.32 | 2.11 | 2.69 | 1.81 | 3.41 | 2.12 | 0.15 | 0.15 |  | 
CCOC(=O)N1CCC(=C2c3ccc(Cl)cc3CCc3cccnc32)CC1 [loratadine] |  | 8.3 µmol/L |  |  |  |  |  |  |  |  |  |  |  |  | mild | +
N=C(N)c1ccc(OCCCCCOc2ccc(C(=N)N)cc2)cc1 [pentamidine] |  | 8.3 µmol/L | 0.93 | 2.88 | 0.15 | 2.49 | 2.50 | 1.82 | 0.52 | 0.73 | 1.83 | 2.12 | 0.50 | 0.68 |  | 
C=C[C@H]1C[N@@]2CC[C@H]1C[C@@H]2[C@@H](O)c1ccnc2ccc(OC)cc12 [quinidine] | − | 25 µmol/L | 1.43 |  | 1.38 |  |  |  |  |  |  |  | 0.37 | 0.63 |  | 
